This note sets out measurements from ChEMBL document CHEMBL1201862, “PubChem BioAssay data set” (2004).

Structures are written as SMILES. Activity calls are given as the source filed them. Bounds are passed on as bounds.

Test [1] can be described thus: HEK293T cytotoxicity, dose response, cytotoxicity control for miR-122 modulator project, cell-based, activator set, cherry-pick (AID 720690).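 Also: HEK293T human cells scored for general mammalian cytotoxicity.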 It is filed as functional.
In test [2] the target is T1, Oxysterols receptor LXR-beta (Homo sapiens, UniProt P55055).
T1 sequence (P55055 whole entry): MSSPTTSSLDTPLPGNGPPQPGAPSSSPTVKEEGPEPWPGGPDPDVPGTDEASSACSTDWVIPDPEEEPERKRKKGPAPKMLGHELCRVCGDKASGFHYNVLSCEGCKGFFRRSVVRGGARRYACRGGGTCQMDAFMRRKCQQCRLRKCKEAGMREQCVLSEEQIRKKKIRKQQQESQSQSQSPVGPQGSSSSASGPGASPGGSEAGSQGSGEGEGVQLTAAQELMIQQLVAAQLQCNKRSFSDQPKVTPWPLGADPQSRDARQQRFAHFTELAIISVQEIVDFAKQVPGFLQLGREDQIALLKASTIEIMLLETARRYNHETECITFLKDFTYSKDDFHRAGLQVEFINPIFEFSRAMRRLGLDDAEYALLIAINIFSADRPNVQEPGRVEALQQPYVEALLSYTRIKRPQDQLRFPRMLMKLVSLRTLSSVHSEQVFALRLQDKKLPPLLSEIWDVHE
It is filed as functional, cell-based.

For test [3], the target named is NAD-dependent protein deacylase sirtuin-5, mitochondrial (Homo sapiens, UniProt Q9NXA8). As to the kind of experiment: SIRT5 desuccinylase inhibitors, dose response, biochemical, fluorescence imaging, cherry-pick, set 5 (AID 720591).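 Also: desuccinylation of succinyl peptide AMC substrate read as fluorescence after trypsin release; potency of inhibitors that lower fluorescence and may act on trypsin instead.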
NAD-dependent protein deacylase sirtuin-5, mitochondrial, sequence (Q9NXA8 whole entry): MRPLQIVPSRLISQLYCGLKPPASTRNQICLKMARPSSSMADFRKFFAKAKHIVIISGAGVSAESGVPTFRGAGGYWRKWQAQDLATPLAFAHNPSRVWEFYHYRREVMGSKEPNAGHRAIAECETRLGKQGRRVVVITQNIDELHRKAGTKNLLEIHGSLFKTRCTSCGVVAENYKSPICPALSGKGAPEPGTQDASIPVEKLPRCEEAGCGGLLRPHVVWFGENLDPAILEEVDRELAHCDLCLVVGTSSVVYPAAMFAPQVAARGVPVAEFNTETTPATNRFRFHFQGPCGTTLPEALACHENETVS
A short description of test [4]: T. cruzi intracellular amastigote growth inhibition, dose response, imaging, CA-I/72 strain, bovine embryo skeletal muscle, dry powder (AID 651885). It is filed as functional, cell-based.
A short description of test [5]: IGROV1 ovarian cancer cell cytotoxicity, dose response, PAX8 inhibitor project, plate reader, dry powder samples (AID 743043). It is filed as functional, cell-based. Particulars: IGROV-1.
Another test has as its target Paired box protein Pax-8 (Homo sapiens, UniProt Q06710). As to the kind of experiment: inhibitors of PAX8-driven TPO luciferase reporter, dose response, RMG-I cells, cherry-pick (AID 687027).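 Also: luciferase reporter driven by Pax8 target thyroperoxidase promoter measured by SteadyGlo luminescence.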 It is filed as functional, cell-based. In general terms: A reporter such as luciferase makes a cellular process visible.
Test [6] in a line: NIH:OVCAR-3 ovarian cancer cell cytotoxicity, dose response, PAX8 inhibitor project, plate reader, dry powder samples (AID 743044). It is filed as functional, cell-based.
Test [7] in a line: non-specific cell cytotoxicity, dose response, cytotoxicity control for PAX8 inhibitor project, plate reader, dry powder samples (AID 743021). It is filed as functional, cell-based.
Test [8] deals with T1, Oxysterols receptor LXR-beta. It is filed as functional, cell-based. The source holds these as a separate data set.
Test [9] is described as follows: A2780 ovarian cancer cell cytotoxicity, dose response, cytotoxicity control, plate reader, dry powder samples (AID 743046). It is filed as functional, cell-based.
A short description of test [10]: cytotoxicity in OVCAR8 ovarian cancer cells, dose response, PAX8 project, cell-based, plate reader, dry powder samples (AID 743197). It is filed as functional. Particulars: OVCAR-8.
Test [11] deals with Endoplasmic reticulum aminopeptidase 1 (Homo sapiens, UniProt Q9NZ08). As to the kind of experiment: ERAP1 aminopeptidase inhibitors, dose response, biochemical, cherry-pick, set 2, plate reader (AID 743314).
Endoplasmic reticulum aminopeptidase 1, sequence (Q9NZ08 whole entry, the tested form may be a part): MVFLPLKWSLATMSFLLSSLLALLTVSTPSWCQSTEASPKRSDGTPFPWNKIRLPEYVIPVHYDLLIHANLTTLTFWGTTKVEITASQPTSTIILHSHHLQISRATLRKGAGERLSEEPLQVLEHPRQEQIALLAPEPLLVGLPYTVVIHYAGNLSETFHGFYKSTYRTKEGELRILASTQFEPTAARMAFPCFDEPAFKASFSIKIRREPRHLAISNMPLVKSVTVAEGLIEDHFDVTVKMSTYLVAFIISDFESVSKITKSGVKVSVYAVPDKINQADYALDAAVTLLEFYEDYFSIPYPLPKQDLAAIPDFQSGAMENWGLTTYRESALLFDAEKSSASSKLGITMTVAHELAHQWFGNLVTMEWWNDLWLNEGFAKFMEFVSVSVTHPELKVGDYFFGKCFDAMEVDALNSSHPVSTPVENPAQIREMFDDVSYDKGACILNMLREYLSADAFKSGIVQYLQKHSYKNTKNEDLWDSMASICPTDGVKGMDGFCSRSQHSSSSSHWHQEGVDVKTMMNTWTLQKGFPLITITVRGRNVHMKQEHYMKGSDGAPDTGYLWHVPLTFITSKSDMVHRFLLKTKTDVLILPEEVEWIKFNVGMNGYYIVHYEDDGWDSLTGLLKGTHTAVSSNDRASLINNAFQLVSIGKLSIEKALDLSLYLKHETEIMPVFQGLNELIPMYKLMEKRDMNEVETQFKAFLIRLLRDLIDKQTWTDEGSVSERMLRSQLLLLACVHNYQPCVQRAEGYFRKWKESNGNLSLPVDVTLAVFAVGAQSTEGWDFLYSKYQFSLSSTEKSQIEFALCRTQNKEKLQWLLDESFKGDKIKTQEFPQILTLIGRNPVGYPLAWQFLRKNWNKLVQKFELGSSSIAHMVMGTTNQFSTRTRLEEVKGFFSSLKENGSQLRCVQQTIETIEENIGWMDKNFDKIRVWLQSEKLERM
Test [12] has as its target Disintegrin and metalloproteinase domain-containing protein 17 (Homo sapiens, UniProt P78536). The test is described as follows: ADAM17 protease inhibitors, dose response, counter-screen for ADAM10 exosite inhibitor project, biochemical, quenched FRET substrate (AID 743253). In general terms: A counterscreen serves to expose hits that act by an unwanted route or on another target.

A short description of test [13]: ADAM10 inhibitors, peptide cleavage, dose response, biochemical, QFRET (AID 743254).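 Also: ADAM10 enzyme with the DM2 quenched FRET peptide as substrate; EDANS fluorescence gain as the protease cuts the substrate; inhibitor potency against ADAM10 proteolytic activity.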
The target in test [14] is T2, Latent membrane protein 1 (Human herpesvirus 4 (strain B95-8), UniProt P03230).
T2 sequence (P03230 whole entry): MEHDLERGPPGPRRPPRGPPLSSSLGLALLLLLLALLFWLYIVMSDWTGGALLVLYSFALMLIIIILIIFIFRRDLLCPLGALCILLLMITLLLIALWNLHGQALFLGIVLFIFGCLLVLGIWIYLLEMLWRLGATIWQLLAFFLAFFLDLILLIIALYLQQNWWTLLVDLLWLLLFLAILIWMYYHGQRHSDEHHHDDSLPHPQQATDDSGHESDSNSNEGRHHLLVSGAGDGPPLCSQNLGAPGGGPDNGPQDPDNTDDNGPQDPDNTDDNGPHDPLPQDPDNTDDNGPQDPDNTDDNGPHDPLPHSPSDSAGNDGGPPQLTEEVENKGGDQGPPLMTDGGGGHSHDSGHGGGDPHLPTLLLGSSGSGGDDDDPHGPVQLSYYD
As to the kind of experiment: TES1-eGFP NF-kB reporter inhibition versus Tet-On dsRED, dose response, selectivity assay for LMP1 NF-kB inhibitor project, imaging, HEK293T, dual-color eGFP/dsRED, cherry-picks (AID 588398). It is filed as functional, cell-based.

A further test has as its system HEK293. The test is described as follows: inhibitors of LMP1-driven NF-kB reporter, dose response, cell-based, HEK293, luciferase, cherry-pick (AID 588343). Particulars: Homo sapiens. It is filed as functional.
For test [15], the target named is COUP transcription factor 2 (Homo sapiens, UniProt P24468). The test is described as follows: Luminescence-based cell-based high throughput dose response assay to identify inhibitors of COUP-TFII (NR2F2). It is filed as functional.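 Also: HEK293 cells transiently cotransfected with COUP-TFII expression vector and reporter; luciferase reporter luminescence driven by COUP-TFII from the pX2-168 reporter plasmid.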
COUP transcription factor 2, sequence (P24468 whole entry): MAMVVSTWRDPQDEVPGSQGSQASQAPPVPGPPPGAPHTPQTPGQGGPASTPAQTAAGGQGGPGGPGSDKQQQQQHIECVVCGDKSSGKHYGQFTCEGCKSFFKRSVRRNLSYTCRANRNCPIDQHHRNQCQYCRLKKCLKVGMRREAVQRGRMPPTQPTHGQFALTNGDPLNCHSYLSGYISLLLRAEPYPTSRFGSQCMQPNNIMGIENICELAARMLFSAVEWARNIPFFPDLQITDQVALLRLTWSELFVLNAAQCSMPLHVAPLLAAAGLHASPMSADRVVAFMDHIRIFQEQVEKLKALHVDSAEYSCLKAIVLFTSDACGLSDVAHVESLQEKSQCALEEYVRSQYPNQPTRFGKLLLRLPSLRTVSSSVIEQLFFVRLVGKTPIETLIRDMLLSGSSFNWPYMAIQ
In another test the target is T3, Protein skinhead-1 (Caenorhabditis elegans, UniProt P34707).
T3 sequence (P34707 whole entry): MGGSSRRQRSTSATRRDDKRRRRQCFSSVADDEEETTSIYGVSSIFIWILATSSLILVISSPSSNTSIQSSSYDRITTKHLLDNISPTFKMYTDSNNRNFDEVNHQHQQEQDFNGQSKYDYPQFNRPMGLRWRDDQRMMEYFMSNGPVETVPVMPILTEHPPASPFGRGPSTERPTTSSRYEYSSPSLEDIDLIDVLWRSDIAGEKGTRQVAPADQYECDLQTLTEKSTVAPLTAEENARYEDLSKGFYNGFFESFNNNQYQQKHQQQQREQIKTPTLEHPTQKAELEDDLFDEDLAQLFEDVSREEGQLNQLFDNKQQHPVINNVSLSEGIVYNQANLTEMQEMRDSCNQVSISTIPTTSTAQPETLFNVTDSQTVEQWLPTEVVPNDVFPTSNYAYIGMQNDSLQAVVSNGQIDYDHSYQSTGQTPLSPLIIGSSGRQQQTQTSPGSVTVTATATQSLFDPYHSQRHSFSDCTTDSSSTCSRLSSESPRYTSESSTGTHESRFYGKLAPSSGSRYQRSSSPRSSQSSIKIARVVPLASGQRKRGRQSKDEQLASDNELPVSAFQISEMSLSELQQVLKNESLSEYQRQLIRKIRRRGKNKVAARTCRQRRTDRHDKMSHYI
It is filed as functional.

Test [16] can be described thus: Luminescence Cell-Based Dose Retest to Confirm Inhibitors of Cancer Stem Cells. [Related pubchem assays (depositor defined):AID2717, AID2721]. Particulars: Homo sapiens. It is filed as functional.
The nature of test [17]: HepG2 cell cytotoxicity, dose response, cytotoxicity control for Shn3 inhibitor project, CellTiter-Glo, cherry-picked (AID 624134). It is filed as functional, cell-based. Background: In ATP-based viability assays light output follows the ATP content of the culture.
Test [18] in a line: Shn3 3'UTR reporter inhibitors, dose response, cell-based, Clone20 osteoblasts, firefly luciferase, cherry-picked (AID 624132).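 Also: firefly luciferase luminescence from reporter carrying the Shn3 3'UTR in osteoblasts.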 It is filed as functional.
Test [19] in a line: control 3'UTR Renilla luciferase suppression, dose response, counter-screen for Shn3 inhibitor project, cell-based, Clone20-Shn3RL, cherry-picked (AID 624133). It is filed as functional.

Paired box protein Pax-8, sequence (Q06710 whole entry): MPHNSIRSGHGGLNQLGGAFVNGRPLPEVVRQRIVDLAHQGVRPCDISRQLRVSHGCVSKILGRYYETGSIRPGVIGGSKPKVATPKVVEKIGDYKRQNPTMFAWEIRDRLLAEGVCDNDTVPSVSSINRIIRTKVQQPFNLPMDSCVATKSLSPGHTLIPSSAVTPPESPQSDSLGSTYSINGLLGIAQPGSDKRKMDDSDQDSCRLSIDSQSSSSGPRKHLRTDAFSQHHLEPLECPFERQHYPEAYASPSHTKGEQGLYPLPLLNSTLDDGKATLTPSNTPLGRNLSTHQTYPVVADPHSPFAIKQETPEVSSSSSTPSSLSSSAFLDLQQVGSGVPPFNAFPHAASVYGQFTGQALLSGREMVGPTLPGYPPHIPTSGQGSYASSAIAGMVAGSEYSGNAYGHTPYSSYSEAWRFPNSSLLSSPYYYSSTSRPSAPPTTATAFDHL
Disintegrin and metalloproteinase domain-containing protein 17, sequence (P78536 whole entry, the tested form may be a part): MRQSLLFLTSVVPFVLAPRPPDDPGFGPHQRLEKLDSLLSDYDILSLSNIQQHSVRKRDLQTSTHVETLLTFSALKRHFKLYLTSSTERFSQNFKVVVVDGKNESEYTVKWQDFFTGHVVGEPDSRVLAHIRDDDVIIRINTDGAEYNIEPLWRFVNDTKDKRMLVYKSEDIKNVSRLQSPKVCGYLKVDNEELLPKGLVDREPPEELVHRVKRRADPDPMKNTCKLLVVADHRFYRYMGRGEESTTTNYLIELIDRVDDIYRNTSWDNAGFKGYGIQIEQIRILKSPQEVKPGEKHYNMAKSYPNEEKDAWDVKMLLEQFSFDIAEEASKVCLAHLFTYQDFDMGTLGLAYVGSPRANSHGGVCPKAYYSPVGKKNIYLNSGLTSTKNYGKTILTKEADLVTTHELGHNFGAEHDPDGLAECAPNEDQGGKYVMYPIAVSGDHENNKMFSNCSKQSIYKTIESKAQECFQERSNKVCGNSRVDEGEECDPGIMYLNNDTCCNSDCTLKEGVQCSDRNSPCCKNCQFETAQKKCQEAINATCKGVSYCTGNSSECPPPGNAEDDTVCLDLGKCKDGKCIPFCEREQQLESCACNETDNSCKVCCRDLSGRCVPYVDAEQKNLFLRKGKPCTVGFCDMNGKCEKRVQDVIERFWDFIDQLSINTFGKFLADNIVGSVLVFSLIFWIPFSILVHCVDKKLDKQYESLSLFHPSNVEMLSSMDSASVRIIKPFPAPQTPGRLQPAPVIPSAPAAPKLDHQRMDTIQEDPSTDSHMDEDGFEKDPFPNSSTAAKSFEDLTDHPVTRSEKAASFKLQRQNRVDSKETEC

A word on the AC50: it is the concentration giving half of the maximal activity seen. Consider `CN1C(=O)c2cc(NC(=O)c3ccc(C(F)(F)F)cc3)ccc2OC[C@@H]2O[C@@H](CC(=O)NCc3ccc4c(c3)OCO4)CC[C@H]21`, for which the AC50 in [1] was 20.3 µM (active).
As a reminder, the EC50 is the concentration needed to bring the measured effect to its halfway point. With `C/C(=N\NC(=O)OC(C)(C)C)c1ccc[nH]1`, in [2], the EC50 was > 67.6 µM (inactive).
With `CC(C)CCN1C(=O)c2ccccc2C1c1nnnn1-c1ccc2c(c1)OCCO2` (stereo unspecified), the AC50 in test [3] was > 30 µM (inactive).
As a reminder, the IC50 is the point on the concentration scale where inhibition reaches its midpoint. Consider `C[C@@H]1CN([C@@H](C)CO)C(=O)c2cccc(NC(=O)c3ccncc3)c2O[C@H]1CN(C)Cc1ccncc1`, for which the IC50 in [4] was 17.3 µM (inconclusive).
`Cc1ccccc1-c1ccc([C@@H]2[C@@H]3CN(C(=O)Nc4cccc(F)c4)C[C@H]2N3)cc1`: the AC50 in [5] is 21.8 µM (active); on Paired box protein Pax-8, 30.7 µM (active); in [6], 37.4 µM (active); in [7], 22.9 µM (active).
Consider `CC1=NN(C(N)=S)C(=O)C1N=Nc1ccc(Br)cc1` (stereo unspecified), for which the EC50 (in “cells”; in test [8]) was > 67.6 µM (inactive) in each case.
`O=c1c2ccccc2cnn1-c1ccc(Br)cc1`: the EC50 (in “cells”; in [8]) was > 67.5 µM (inactive) throughout.
On to `C[C@@H]1CN([C@@H](C)CO)S(=O)(=O)c2ccc(C#Cc3ccccc3F)cc2O[C@H]1CN(C)C(=O)c1ccc2c(c1)OCO2`, for which the AC50 in [1] was 5.74 µM (active); in test [5], 28.5 µM (active); on Paired box protein Pax-8, 4.88 µM (active); in test [9] it was 0.765 µM (active); in test [10], 17.7 µM (active); in test [6], 6.2 µM (active).
Consider `COCCNC(=O)/C(C#N)=C/c1cc(C)n(-c2ccc(C)cc2)c1C`, for which the EC50 in test [2] was > 67.5 µM (inactive).
As for `CCCn1c(SCC(=O)Nc2ccc3c(c2)OCO3)nc2c1c(=O)n(C)c(=O)n2C`, the AC50 in [3] is > 30 µM (inactive).
In the case of `O=C(NCCc1ccncc1)[C@@H]1N[C@@H]2c3ccc(/C=C/c4ccccc4)c(=O)n3C[C@@H]2[C@H]1CO`, in test [11], the AC50 was 13 µM (active).
In the case of `C[C@H](CO)N1C[C@H](C)[C@H](CN(C)Cc2ccc3c(c2)OCO3)OCCCC[C@H](C)Oc2ccc(NC(=O)Nc3ccc(C(F)(F)F)cc3)cc2C1=O`, the AC50 on Paired box protein Pax-8 was 9.15 µM (active); in test [7], 46.4 µM (active).
As for `CCCOc1ccc(NC(=O)CC2C(=O)N(Cc3ccccc3)C(=S)N2Cc2cccs2)cc1` (stereo unspecified), the IC50 in test [12] is > 69.6 µM (inactive); in [13], 44.4 µM (inactive).
In the case of `CCc1cc(=O)oc2c(CNCc3c(F)cccc3Cl)c(O)ccc12`, the AC50 in test [11] is 8.53 µM (active); in test [14], 54.9 µM (active); with HEK293, 230 µM (active).
`Cc1ccc(F)cc1NC(=O)Cc1nn(C)c(=O)c2ccccc12`: the values for the IC50 (in test [15]; at Protein skinhead-1) were 12.7 µM (inactive) and > 100 µM (inactive), respectively.
For `C=CCC[C@H](Cc1ccc(F)cc1)C(=O)OC[C@@H](Cc1c[nH]c2ccccc12)NC(=O)[C@H](CC=C)CC(=O)N(CCO)Cc1ccccc1`, the AC50 is 3.42 µM (active) in test [16], 30.9 µM (active) in [17], 8.66 µM (active) in test [18] and 29 µM (active) in [19]. Moreover, the IC50 in test [12] is > 69.5 µM (inactive); in [13] it was > 7.72 µM (active).
